“And” between values parts separate entries of the source, which are not always exact repeats. Equal entries are not always repeated. “Also recorded” adds a separate entry of the source. Where two headings read alike, the source gives them in different places.
Experiments:
C57BL/6 mice = details: for Number Dead on Day 3: ten mice per dose
Method: Single dose LD50 in C57BL/6 mice for Cpd. 1 is determined following the method of Spearman and Karber described in Basic Exercises in Immunochemistry, 1979. Briefly, 0.5 ml of each dose is given to each of ten mice. The survivors are counted after 3 days and the LD50 is calculated using the following formula: [formula] where D=fold diferences between doses, R=total number dead, and N=total number of animals tested.

spleen lymphocytes = details: 4 days
Method: (§1) The purpose of this assay is to challenge lymphocytes in microcultures with one or more polyclonal mitogens at concentrations that will induce mitogenesis within 72 hours of stimulation.
(§2) In the mouse model, spleens are removed from different strains of mice and the spleen cells are teased free and suspended in RPMI-1640 tissue culture medium at a concentration of usually […]. These cells are dispensed at a concentration of 5.0×10^5 cells per microculture well in a 96 well flat bottom 96 well tissue culture plate. All testing of the compounds of this invention or mitogens are done in replicates of 10. The cells are then treated with PHA, Con-A, specific antigens, or buffer only. If in vitro testing is done, varying concentrations of the compounds of this invention or buffer only are added to the cells as well. After treatment with the mitogens and/or compounds of this invention, the cells are incubated for 72 hours. The response of these cells to mitogens and/or the compounds of this invention is assessed using ^14 C-thymidine labeling on the fourth day at a concentration of 0.01 μCi/well. The labeled cells are harvested using a lymphocyte harvestor and placed onto fibrous paper discs. A scintillation cocktail is added to vials containing the discs and the results are obtained using a LKB-liquid scintillation counter (Model 1216/Rackbeta II). The data is expressed as a ratio of the cpm of the mitogen stimulated group to the control (nonmitogen) treated group=lymphocyte stimulation index (LSI).
(§3) The lymphocyte stimulation assay may be performed directly on spleen cells obtained from various strains of mice not treated with the compounds of this invention or on lymphocytes obtained from human […]. […] Alternatively, the mice may be treated in vivo with the compounds of this invention by intraperitoneal multi-dose schedules, followed by sacrifice and harvesting spleen lymphocytes. These cells are then tested for their response to polyclonal mitogens or specific antigens used to immunize the mice. In this system however, no additional compound is added to the in vitro lymphocyte stimulation assay system.
Two strains of mice, C57BL/6 and BALB/c, are treated 4 days with i.p. administration of either 50, 100, 200, or 400 mg/kg of Cpd. 1, or just buffer. This is followed on the fifth day by a lymphocyte stimulation assay.

human lymphocytes = assay: In vitro lymphocyte stimulation assay, human lymphocytes; assay type: cell-based
Method: as §1, §2, §3
Lymphocytes isolated from 5 human volunteers are treated in vitro with PHA and Con-A and either 0.1, 1, 10, 50, or 100 μg/well of Cpd. 1, 0.1, 1, 10, 50, or 100 μg/well of AA, or buffer.

L5178Y tumor cells = details: for No. Survivors: 100 mg/kg
Method: Ten days later the resultant tumor nodule, about 1 cm in size, is surgically excised. If the excision was successful, no subcutaneous tumors develop at the site of implantation. […] These mice are considered to be in the tumor dormant state.
The effect of Cpd. 1 on the establishment of the L5178Y tumor dormant state is studied by treating forty DBA/2 mice with Cpd. 1 after the mice have undergone the TDS inducing procedure. […] 1 at 100 mg/kg and the remaining twenty mice receive buffer only. A partial peritoneal lavage is performed twenty-five days after the last dose of Cpd. 1 and the peritoneal exudate fluid is plated out for determination of tumor cell numbers (tumor cell quantitative assay). Survival time is recorded out to 90 days after challenge with the viable L5178Y tumor cells. The percent mortality is calculated for each group.
The effect of Cpd. 1 on the establishment of the L5178Y tumor dormant state was studied by treating forty DBA/2 mice with Cpd. 1 after the mice had undergone the TDS inducing procedure. Two days after the mice were challenged with i.p. administration of 50,000 viable L5178Y tumor cells, twenty of these mice received seven consecutive days of i.p. treatment with Cpd. 1 at 100 mg/kg and the remaining twenty mice received buffer only. A partial peritoneal lavage was performed twenty-five days after the last dose of Cpd. 1 and the peritoneal exudate fluid was plated out for determination of tumor cell numbers (tumor cell quantitative assay). Survival time was recorded out to 114 days after challenge with the viable L5178Y tumor cells. The percent mortality was calculated for each group.

[1] = No. tumor cells >100,000, 100 mg/kg i.p., 7 days

Cc1ccc(C2(O)C(=O)OC3C(O)COC32O)o1.Cc1ccc(C2(O)C(=O)OC3C(O)COC32O)o1.O=C1CCC(=O)O1 (centres unmarked) [Cpd. 1, 2-furylbutyrolactone:succinic anhydride]
Number Dead on Day 3 (C57BL/6 mice; 1,000 mg/kg single i.p.): 0 | Number Dead on Day 3 (C57BL/6 mice; 2,000 mg/kg single i.p.): 0 | Number Dead on Day 3 (C57BL/6 mice; 4,000 mg/kg single i.p.): 7 | Number Dead on Day 3 (C57BL/6 mice; 8,000 mg/kg single i.p.): 10 | Number Dead on Day 3 (C57BL/6 mice; 16,000 mg/kg single i.p.): 10 | LD50 (C57BL/6 mice; purified Cpd. 1, single i.p. injection, 4320 min): > 3000 mg/kg | Lymphocyte Stimulation Index, Con-A (spleen lymphocytes; 50 mg/kg i.p.): 20.5 | Lymphocyte Stimulation Index, Control (no mitogen) (spleen lymphocytes; 50 mg/kg i.p.): 1.4 | Lymphocyte Stimulation Index, PHA (spleen lymphocytes; 50 mg/kg i.p.): 6.44 | Lymphocyte Stimulation Index, Con-A (spleen lymphocytes; 100 mg/kg i.p.): 21.8 | Lymphocyte Stimulation Index, Control (no mitogen) (spleen lymphocytes; 100 mg/kg i.p.): 1.0 | Lymphocyte Stimulation Index, PHA (spleen lymphocytes; 100 mg/kg i.p.): 5.24 | Lymphocyte Stimulation Index, Con-A (spleen lymphocytes; 200 mg/kg i.p.): 20.5 | Lymphocyte Stimulation Index, Control (no mitogen) (spleen lymphocytes; 200 mg/kg i.p.): .76 | Lymphocyte Stimulation Index, Con-A (spleen lymphocytes; 400 mg/kg i.p.): 18.7 | Lymphocyte Stimulation Index, Control (no mitogen) (spleen lymphocytes; 400 mg/kg i.p.): .90 | Lymphocyte Stimulation Index, PHA (spleen lymphocytes; 400 mg/kg i.p.): 6.71 | Lymphocyte Stimulation Index, Con-A (human lymphocytes; 0.1 μg/well): 38.06 | Lymphocyte Stimulation Index, PHA (human lymphocytes; 0.1 μg/well): 56.67 | Lymphocyte Stimulation Index, Con-A (human lymphocytes; 1.0 μg/well): 32.63 | Lymphocyte Stimulation Index, PHA (human lymphocytes; 1.0 μg/well): 48.60 | Lymphocyte Stimulation Index, Con-A (human lymphocytes; 10 μg/well): 23.82 | Lymphocyte Stimulation Index, PHA (human lymphocytes; 10 μg/well): 34.37 | Lymphocyte Stimulation Index, Con-A (human lymphocytes; 50 μg/well): 1.33 | Lymphocyte Stimulation Index, PHA (human lymphocytes; 50 μg/well): 0.40 | Lymphocyte Stimulation Index, Con-A (human lymphocytes; 100 μg/well): 0.44 | Lymphocyte Stimulation Index, PHA (human lymphocytes; 100 μg/well): 0.544 | effect on lymphocyte response (in words) (human lymphocytes; in vitro, PHA and Con-A): a high dose anti-proliferative effect, at doses of 100 and 50 μg/ml; also recorded: markedly increased lymphocyte response at very low doses of 1 and 0.1 μg/ml | numbers of tumor cells recovered (in words) (L5178Y tumor cells; 100 mg/kg i.p., 7 days): significant reduction in the numbers of tumor cells recovered | survival (in words) (L5178Y tumor cells; 100 mg/kg i.p., 7 days): significantly greater survival | No. Survivors (L5178Y tumor cells; 90 days post-challenge): 10 | No. Survivors (L5178Y tumor cells; 114 days post-challenge): 19 | Frequency (mice), treated group (L5178Y tumor cells; No. tumor cells 1,000 to 100,000, 100 mg/kg i.p., 7 days): 7 and 4 | % of Total, treated group (L5178Y tumor cells; [1]): 6% and 4.3% | Frequency (mice), treated group (L5178Y tumor cells; [1]): 1
